PMC7926352, “Synthesis, Characterization and In Vitro Evaluation of Novel 5-Ene-thiazolo[3,2-b][1,2,4]triazole-6(5H)-ones as Possible Anticancer Agents” (Molecules, 2021)
Read-outs that look alike come from different tables or passages of the source.

Key:
[1] = test system: panel of approximately sixty human tumor cell lines; experiment: NCI-60 human tumor cell lines screen (SRB), full panel; assay type: cell-based; conditions: 10 μM; for activity at 10 µM: Homo sapiens, 60 cell lines assay in one dose, 48 h; for Positive Cytostatic Effect / Positive Cytotoxic Effect: one dose; for Positive Cytostatic Effect: ratio of number of cell lines with percent growth from 0 to 50 to total number of cell lines; for Positive Cytotoxic Effect: ratio of number of cell lines with percent growth of <0 to total number of cell lines
Description: Compounds 2a, 2c–f, 2h–l, 3, 5e, 5f were selected for antitumor activity which was performed according to the standard protocols of National Cancer Institute (NCI, Bethesda, MD, USA) Developmental Therapeutic Program (DTP). At the prescreening stage, the compounds were evaluated for antitumor activity at the concentration of 10 µM against a panel of approximately sixty cancer cell lines representing different types of cancer including leukemia, melanoma, lung, colon, CNS, ovarian, renal, prostate and breast cancers.
Among them, three compounds (2d, 2h, 2i) presented excellent cytotoxic and four derivatives (2d, 2h, 2i, 2k) cytostatic properties in one or more cell lines when applied at a concentration of 10 µM. […] The outcomes were calculated and presented in the form of three response parameters (GI50, TGI and LC50) for each cell line via growth percentage inhibition curves. […]
The primary anticancer assay was performed on a panel of approximately sixty human tumor cell lines derived from nine neoplastic diseases (leukemia, melanoma, lung, colon, CNS, ovarian, renal, prostate, and breast cancers), in accordance with the protocol of the National Cancer Institute Drug Evaluation Branch (Bethesda, MD, USA). Tested compounds were added to the culture at a single concentration (10^−5 M) and the cultures were incubated for 48 h. End-point determinations were made with a protein-binding dye, sulforhodamine B (SRB). Results for each tested compound were reported as the percentage of the growth of the treated cells when compared to the untreated control cells. The percentage of the growth was evaluated spectrophotometrically versus controls not treated with test agents. […] Using absorbance measurements [time zero (Tz), control growth in the absence of drug (C), and test growth in the presence of the drug (Ti)], the percentage growth was calculated for each drug concentration. Percentage growth inhibition was calculated as:[(Ti − Tz)/[…]] × 100(1) for concentrations for which Ti ≥ Tz, [(Ti − Tz)/Tz] × 100 for concentrations for which Ti < Tz. Dose-response parameters (GI50, TGI) were calculated for each compound. Growth inhibition of 50% (GI50) was calculated from [(Ti − Tz)/(C − Tz)] × 100 = 50, which is the drug concentration resulting in a 50% lower net protein increase in the treated cells (measured by SRB staining) as compared to the net protein increase seen in the control cells. The drug concentration resulting in total growth inhibition (TGI) was calculated from Ti = Tz. Values were calculated for each of these parameters if the level of activity was reached; however, if the effect was not reached or was excessive, the value for that parameter was expressed as more or less than the maximum or minimum concentration tested. The lowest values were obtained with the most sensitive cell lines. Compounds having GI50 values ≤ 100 μM were declared to be active. The selectivity index (SI) calculated by dividing the full panel MG_MID (full-panel mean-graph midpoint) (μM) of the compounds 2h and 2i by their individual subpanel MG_MID of a cell line (μM) was considered as a measure of compounds’ selectivity. Ratios between 3 and 6 mean moderate selectivity, ratios greater than 6 indicate high selectivity toward the corresponding cell line, while compounds not meeting either of these criteria are rated nonselective.

[2] = test system: phospholipase C-γ2 (PLC-γ2); parameters: method as in PMID 19303309; conditions: at 15 µM; cited from earlier work
[3] = test system: phospholipase C-γ2 (PLC-γ2); parameters: method as in PMID 19303309; conditions: at 15 µM; cited from earlier work; remark: listed apart in the source

In the case of `O=c1/c(=C/Nc2ccc(Cl)cc2)sc2ncnn12` [Compound 5f, (E/Z)-5-(((4-Chlorophenyl)amino)methylene)thiazolo[3,2-b][1,2,4]triazol-6(5H)-one], the activity at 10 µM ([1]; read-out: Mean Growth, %) is reported as 93.6%, the activity at 10 µM ([1]; read-out: Range of Growth, %) is reported as 54.4 to 112% and the “Positive Cytostatic Effect” value [1] is reported as 0/59. For the same molecule, the “Positive Cytotoxic Effect” value [1] was 0/59.

For `CCN(CC)c1ccc(/C=c2\sc3ncnn3c2=O)cc1` [Compound 2e, (Z)-5-(4-(Diethylamino)benzylidene)thiazolo[3,2-b][1,2,4]triazol-6(5H)-one], the activity at 10 µM ([1]; read-out: Mean Growth, %) was 102%, the activity at 10 µM ([1]; read-out: Range of Growth, %) was 61.9 to 134% and the “Positive Cytostatic Effect” value [1] was 0/58. For the same molecule, the “Positive Cytotoxic Effect” value [1] was 0/58.

For `COc1ccc(/C=c2\sc3ncnn3c2=O)cc1OC` [Compound 2f, (Z)-5-(3,4-Dimethoxybenzylidene)thiazolo[3,2-b][1,2,4]triazol-6(5H)-one], the activity at 10 µM ([1]; read-out: Mean Growth, %) was 108%, the activity at 10 µM ([1]; read-out: Range of Growth, %) was 86.7 to 262% and the “Positive Cytostatic Effect” value [1] was 0/57. The “Positive Cytotoxic Effect” value [1] was 0/57.

In the case of `O=c1/c(=C/c2ccccc2F)sc2ncnn12` [Compound 2a, (Z)-5-(2-Fluorobenzylidene)thiazolo[3,2-b][1,2,4]triazol-6(5H)-one], the activity at 10 µM ([1]; read-out: Mean Growth, %) is reported as 90%, the activity at 10 µM ([1]; read-out: Range of Growth, %) is reported as 52.8 to 123% and the “Positive Cytostatic Effect” value [1] is reported as 0/59. The “Positive Cytotoxic Effect” value [1] was 0/59.

For `O=C(O)CSc1nnc[nH]1` [Compound 3, 2-((1H-1,2,4-Triazol-3-yl)thio)acetic Acid], the activity at 10 µM ([1]; read-out: Mean Growth, %) was 97.2%, the activity at 10 µM ([1]; read-out: Range of Growth, %) was 74.8 to 122% and the “Positive Cytostatic Effect” value [1] was 0/59. The “Positive Cytotoxic Effect” value [1] was 0/59.

`Cc1cccc(NC(=O)COc2ccc(Cl)cc2/C=c2\sc3ncnn3c2=O)c1` [Compound 2g, (Z)-2-(4-Chloro-2-((6-oxothiazolo[3,2-b][1,2,4]triazol-5(6H)-ylidene)methyl)phenoxy)-N-(m-tolyl)acetamide] gave a melting point of 260 to 262 °C.

`O=c1/c(=C/N2CCc3ccccc32)sc2ncnn12` [Compound 6a, (Z)-5-(Indolin-1-ylmethylene)thiazolo[3,2-b][1,2,4]triazol-6(5H)-one] gave a melting point of over 250 °C.

`CCOC(=O)N1CCN(/C=c2\sc3ncnn3c2=O)CC1` [Compound 6d, Ethyl(Z)-4-((6-oxothiazolo[3,2-b][1,2,4]triazol-5(6H)-ylidene)methyl)piperazine-1-carboxylate] showed a melting point of 204 to 206 °C.

For `CC(=O)Oc1ccc(/C=c2\sc3ncnn3c2=O)cc1` [Compound 2d, (Z)-4-((6-Oxothiazolo[3,2-b][1,2,4]triazol-5(6H)-ylidene)methyl)phenyl acetate], the activity at 10 µM ([1]; read-out: Mean Growth, %) was 99.7%, the activity at 10 µM ([1]; read-out: Range of Growth, %) was -73.9 to 148% and the “Positive Cytostatic Effect” value [1] was 2/58. The “Positive Cytotoxic Effect” value [1] was 3/58.

With `C=CCOc1ccccc1/C=c1\sc2ncnn2c1=O` [Compound 2c, (Z)-5-(2-(Allyloxy)benzylidene)thiazolo[3,2-b][1,2,4]triazol-6(5H)-one] the activity at 10 µM ([1]; read-out: Mean Growth, %) was 103%, the activity at 10 µM ([1]; read-out: Range of Growth, %) was 77.1 to 146% and the “Positive Cytostatic Effect” value [1] was 0/59. The “Positive Cytotoxic Effect” value [1] was 0/59.

For `O=c1c(=Cc2cccs2)sc2ncnn12` [Compound 2k, (Z)-5-(Thiophen-2-y-lmethylene)thiazolo[3,2-b][1,2,4]triazol-6(5H)-one], the activity at 10 µM ([1]; read-out: Mean Growth, %) was 111%, the activity at 10 µM ([1]; read-out: Range of Growth, %) was 25.2 to 180% and the “Positive Cytostatic Effect” value [1] was 1/56. The “Positive Cytotoxic Effect” value [1] was 0/56.

In the case of `O=c1/c(=C/Nc2cccc(O)c2)sc2ncnn12` [Compound 5e, (E/Z)-5-(((3-Hydroxyphenyl)amino)methylene)thiazolo[3,2-b][1,2,4]triazol-6(5H)-one], the activity at 10 µM ([1]; read-out: Mean Growth, %) is reported as 101%, the activity at 10 µM ([1]; read-out: Range of Growth, %) is reported as 80.3 to 138% and the “Positive Cytostatic Effect” value [1] is reported as 0/59. For the same molecule, the “Positive Cytotoxic Effect” value [1] was 0/59.

Molecule `O=c1/c(=C/N2CCCCC2)sc2ncnn12` [Compound 6b, (Z)-5-(Piperidin-1-ylmethylene)thiazolo[3,2-b][1,2,4]triazol-6(5H)-one] has a melting point of 190 to 192 °C.

For `CC(=O)n1cc(/C=c2\sc3ncnn3c2=O)c2ccccc21` [Compound 2l, (Z)-5-((1-Acetyl-1H-indol-3-yl)methylene)thiazolo[3,2-b][1,2,4]triazol-6(5H)-one], the activity at 10 µM ([1]; read-out: Mean Growth, %) was 105%, the activity at 10 µM ([1]; read-out: Range of Growth, %) was 66.9 to 141% and the “Positive Cytostatic Effect” value [1] was 0/59. The “Positive Cytotoxic Effect” value [1] was 0/59.

`O=c1/c(=C/N2CCN(CCO)CC2)sc2ncnn12` [Compound 6c, (Z)-5-((4-(2-Hydroxyethyl)piperazin-1-yl)methylene)thiazolo[3,2-b][1,2,4]triazol-6(5H)-one] showed a melting point of 189 to 192 °C.

For `O=c1/c(=C/c2ccccc2[N+](=O)[O-])sc2nc(-c3ccc(F)cc3)nn12` [CCT-196700], the “PLC-γ2 inhibition, calcium release cell-based assay” value [2] is listed as “satisfactory activity parameters” and the “PLC-γ2 inhibition, biochemical assay” value [3] is listed as “satisfactory activity parameters”.

`COc1ccccc1/C=c1\sc2ncnn2c1=O` [Compound 2b, (Z)-5-(2-Methoxybenzylidene)thiazolo[3,2-b][1,2,4]triazol-6(5H)-one] gave a melting point of 196 to 198 °C.

For `O=c1/c(=C/c2ccco2)sc2ncnn12` [Compound 2j, (Z)-5-(Furan-2-ylmethylene)thiazolo[3,2-b][1,2,4]triazol-6(5H)-one], the activity at 10 µM ([1]; read-out: Mean Growth, %) was 106%, the activity at 10 µM ([1]; read-out: Range of Growth, %) was 82.4 to 136% and the “Positive Cytostatic Effect” value [1] was 0/56. The “Positive Cytotoxic Effect” value [1] was 0/56.
